According to ChEMBL document CHEMBL4406827, “Novel 4-quinoline-thiosemicarbazone derivatives: Synthesis, antiproliferative activity, in vitro and in silico biomacromolecule interaction studies and topoisomerase inhibition” (Eur J Med Chem, 2019):
Active and inactive are the calls of the source. The rule behind the calls is not given here.

What was measured:
[1] = molecular target: T1, Albumin (Bos taurus, UniProt P02769); assay: Binding affinity to bovine serum albumin assessed as hyperchromicity at 5 to 40 uM incubated for 10 mins by UV-Vis absorption spectroscopic method relative to control; assay type: ADME; conditions: cattle, isolated protein
[2] = tested on: MCF7; assay: Cytotoxicity against human MCF7 cells assessed as reduction in cell viability incubated for 48 hrs by MTT assay; assay type: functional, cell-based; conditions: MCF7, 48 h
[3] = molecular target: T1, Albumin; assay: Binding affinity to bovine serum albumin assessed as Stem-Volmer quenching constant incubated for 10 mins by fluorescence emission spectrum analysis; assay type: ADME; conditions: cattle, isolated protein
[4] = tested on: Calf thymus DNA; assay: Binding affinity to calf thymus DNA assessed as DNA spectral changes at 30 uM incubated for 10 mins by circular dichroism method; assay type: nucleic-acid assay; conditions: Bos taurus
[5] = Selectivity index, ratio of CC50 for mouse RAW264.7 cells to ratio of IC50 for human MCF7 cells; assay type: toxicity; conditions: RAW264.7 cells and MCF7 cells, read-out: Ratio CC50/IC50
[6] = molecular target: T1, Albumin; assay: Binding affinity to bovine serum albumin assessed as hypochromicity at 5 to 40 uM by fluorescence emission spectrum analysis method relative to control; assay type: ADME; conditions: cattle, isolated protein
[7] = tested on: Calf thymus DNA; assay: Binding affinity to calf thymus DNA assessed as hyperchromicity at 30 uM incubated for 10 mins by UV-Vis absorption spectroscopic method relative to control; assay type: nucleic-acid assay; conditions: Bos taurus
[8] = molecular target: T1, Albumin; assay: Binding affinity to bovine serum albumin assessed as hypsochromic shift at 5 to 40 uM by fluorescence emission spectrum analysis method; assay type: ADME; conditions: cattle, isolated protein
[9] = tested on: Calf thymus DNA; assay: Binding affinity to calf thymus DNA assessed as binding constant incubated for 10 mins by UV-Vis absorption spectroscopic method; assay type: nucleic-acid assay; conditions: Bos taurus
[10] = tested on: Calf thymus DNA; assay: Binding affinity to calf thymus DNA assessed as bathochromic shift at 30 uM incubated for 10 mins by UV-Vis absorption spectroscopic method; assay type: nucleic-acid assay; conditions: Bos taurus
[11] = tested on: Calf thymus DNA; assay: Binding affinity to calf thymus DNA assessed as fold change in hypochromicity at 10 uM by fluorescence emission spectrum analysis relative to control; assay type: nucleic-acid assay; conditions: Bos taurus
[12] = molecular target: DNA topoisomerase 2-alpha (Homo sapiens) (UniProt P11388); assay: Inhibition of recombinant human topoisomerase 2alpha using supercoiled pUC19 plasmid DNA as substrate at 10 uM incubated for 45 mins by ethidium bromide dye based agarose gel electrophoresis method
[13] = tested on: Calf thymus DNA; assay: Binding affinity to calf thymus DNA assessed as hypsochromic shift at 10 uM by fluorescence emission spectrum analysis; assay type: nucleic-acid assay; conditions: Bos taurus
[14] = Selectivity index, ratio of CC50 for mouse RAW264.7 cells to ratio of IC50 for human T47D cells; assay type: toxicity; conditions: RAW264.7 cells and T47D cells, read-out: Ratio CC50/IC50
[15] = molecular target: T1, Albumin; assay: Binding affinity to bovine serum albumin assessed as binding constant incubated for 10 mins by UV-Vis absorption spectroscopic method; assay type: ADME; conditions: cattle, isolated protein
[16] = Cytotoxicity against mouse RAW264.7 cells assessed as reduction in cell viability incubated for 48 hrs by MTT assay; assay type: cell-based
[17] = tested on: Salmon testes DNA; assay: Binding affinity to salmon sperm […] DNA assessed as DNA intercalation by measuring increase in viscosity at 12 to 60 uM by viscometric method; assay type: nucleic-acid assay; conditions: Salmonidae
[18] = tested on: T47D; assay: Cytotoxicity against human T47D cells assessed as reduction in cell viability incubated for 48 hrs by MTT assay; assay type: functional, cell-based
[19] = tested on: Calf thymus DNA; assay: Binding affinity to calf thymus DNA assessed as hypochromicity at 30 uM incubated for 10 mins by UV-Vis absorption spectroscopic method relative to control; assay type: nucleic-acid assay; conditions: Bos taurus
[20] = tested on: Calf thymus DNA; assay: Binding affinity to calf thymus DNA assessed as hypsochromic shift at 30 uM incubated for 10 mins by UV-Vis absorption spectroscopic method; assay type: nucleic-acid assay; conditions: Bos taurus

T1 sequence (P02769 whole entry): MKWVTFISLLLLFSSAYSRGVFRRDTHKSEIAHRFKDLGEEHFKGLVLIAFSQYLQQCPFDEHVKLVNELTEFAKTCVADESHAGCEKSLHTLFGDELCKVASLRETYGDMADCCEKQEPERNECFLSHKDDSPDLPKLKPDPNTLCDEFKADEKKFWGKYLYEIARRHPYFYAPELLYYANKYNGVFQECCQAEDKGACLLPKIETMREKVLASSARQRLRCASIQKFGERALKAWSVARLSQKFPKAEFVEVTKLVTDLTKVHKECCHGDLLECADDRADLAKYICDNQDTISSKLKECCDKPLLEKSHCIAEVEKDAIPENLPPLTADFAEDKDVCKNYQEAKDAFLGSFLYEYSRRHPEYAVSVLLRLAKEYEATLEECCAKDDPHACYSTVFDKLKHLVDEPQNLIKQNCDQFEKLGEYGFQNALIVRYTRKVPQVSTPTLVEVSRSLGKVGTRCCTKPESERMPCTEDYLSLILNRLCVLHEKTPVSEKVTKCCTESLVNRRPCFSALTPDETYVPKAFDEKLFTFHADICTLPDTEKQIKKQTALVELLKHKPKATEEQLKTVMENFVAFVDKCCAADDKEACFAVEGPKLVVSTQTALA
DNA topoisomerase 2-alpha (Homo sapiens), sequence (P11388 whole entry): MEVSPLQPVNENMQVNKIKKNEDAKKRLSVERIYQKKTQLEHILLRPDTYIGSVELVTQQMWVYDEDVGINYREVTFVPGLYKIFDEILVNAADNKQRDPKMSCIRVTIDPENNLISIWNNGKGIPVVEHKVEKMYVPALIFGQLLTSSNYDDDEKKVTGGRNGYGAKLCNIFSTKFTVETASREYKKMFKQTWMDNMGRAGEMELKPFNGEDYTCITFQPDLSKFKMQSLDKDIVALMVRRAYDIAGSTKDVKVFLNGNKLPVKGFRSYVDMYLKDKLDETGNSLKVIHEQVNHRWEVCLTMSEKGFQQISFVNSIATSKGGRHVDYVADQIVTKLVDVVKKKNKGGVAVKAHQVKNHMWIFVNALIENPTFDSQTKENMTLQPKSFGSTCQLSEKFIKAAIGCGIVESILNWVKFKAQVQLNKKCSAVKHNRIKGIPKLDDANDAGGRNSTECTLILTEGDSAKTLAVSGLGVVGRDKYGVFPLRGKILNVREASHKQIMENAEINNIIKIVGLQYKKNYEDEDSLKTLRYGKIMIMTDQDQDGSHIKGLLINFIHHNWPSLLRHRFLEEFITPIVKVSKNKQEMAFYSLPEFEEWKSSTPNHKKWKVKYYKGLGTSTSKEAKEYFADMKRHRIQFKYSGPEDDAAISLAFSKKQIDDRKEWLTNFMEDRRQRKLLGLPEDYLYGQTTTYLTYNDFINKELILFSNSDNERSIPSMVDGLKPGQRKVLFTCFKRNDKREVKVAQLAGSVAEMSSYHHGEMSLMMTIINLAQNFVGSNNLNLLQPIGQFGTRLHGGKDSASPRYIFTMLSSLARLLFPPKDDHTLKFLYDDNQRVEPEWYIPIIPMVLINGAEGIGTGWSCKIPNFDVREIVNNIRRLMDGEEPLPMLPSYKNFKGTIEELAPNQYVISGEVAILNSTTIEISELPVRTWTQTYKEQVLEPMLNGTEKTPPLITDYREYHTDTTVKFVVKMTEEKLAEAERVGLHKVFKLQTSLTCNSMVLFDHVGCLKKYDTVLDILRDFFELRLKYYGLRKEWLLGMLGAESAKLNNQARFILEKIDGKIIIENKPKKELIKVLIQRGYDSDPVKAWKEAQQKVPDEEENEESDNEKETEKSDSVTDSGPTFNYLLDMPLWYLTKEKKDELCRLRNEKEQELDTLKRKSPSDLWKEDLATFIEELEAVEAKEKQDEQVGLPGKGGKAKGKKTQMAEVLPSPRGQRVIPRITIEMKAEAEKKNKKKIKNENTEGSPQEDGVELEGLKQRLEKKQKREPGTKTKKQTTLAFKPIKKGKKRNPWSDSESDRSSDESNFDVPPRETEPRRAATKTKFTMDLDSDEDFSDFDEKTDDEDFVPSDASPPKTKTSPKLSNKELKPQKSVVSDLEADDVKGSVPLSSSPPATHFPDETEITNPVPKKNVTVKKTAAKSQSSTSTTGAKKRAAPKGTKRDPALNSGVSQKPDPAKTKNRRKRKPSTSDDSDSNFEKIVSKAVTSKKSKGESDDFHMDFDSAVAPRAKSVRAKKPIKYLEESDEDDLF

SMILES	Activity [1]	KSV [3]	Activity [4]	Activity [6]	Activity [7]	Activity [8]	Kb [9]	Activity [10]	fold change (FC) [11]	inhibition [12]	Activity [13]	Kb [15]	Activity [17]	Activity [19]	Activity [20]	IC50 [2]	selectivity ratio [5]	selectivity ratio [14]	CC50 at 48 h [16]	IC50 [18]
O=[N+]([O-])c1ccc(NC(=S)N/N=C\c2ccnc3ccccc23)cc1	43.48%	3.82 ×10⁴ /M	Active	132.77%		Active	2.51 ×10⁴ /M		7.69	inactive		1.03 ×10⁵ /M	Active	12.9%	Active	0.81 µM	102	62	82.5 µM	1.33 µM
S=C(N/N=C\c1ccnc2ccccc12)Nc1ccccc1	52.75%	11.19 ×10⁴ /M	Active	33.65%		Active	3.5 ×10⁴ /M		3.72	Active	Active	7.29 ×10⁴ /M	Active	52.3%		1.07 µM	110	85.5	118 µM	1.38 µM
COc1cc(NS(C)(=O)=O)ccc1Nc1c2ccccc2nc2ccccc12 [AMSACRINE]										Active			Active			0.91 µM	105	102	95.5 µM	0.94 µM
CNC(=O)c1cccc2c(Nc3ccc(NS(C)(=O)=O)cc3OC)c3cccc(C)c3nc12 [ASULACRINE]																			31.2 µM	
S=C(NCCc1ccccc1)N/N=C\c1ccnc2ccccc12	62.54%	4.09 ×10⁴ /M	Active	157.14%		Active	2.42 ×10⁴ /M		5.53	inactive		1.08 ×10⁵ /M	Active	27.4%		1.09 µM	30.2	29.4	33 µM	1.12 µM
S=C(N/N=C\c1ccnc2ccccc12)Nc1cccc2ccccc12	53.34%	6.36 ×10⁴ /M	Active	226.14%	13.9%	Active	2.54 ×10⁵ /M		1.67	Active		1.13 ×10⁵ /M	Active			0.88 µM	25.6	18.6	22.6 µM	1.21 µM
COc1ccc(NC(=S)N/N=C\c2ccnc3ccccc23)cc1	42.61%	9.24 ×10⁴ /M	Active	320.04%	59.6%	Active	1.33 ×10⁵ /M		11.6	Active	Active	5.44 ×10⁴ /M	Active		Active	0.99 µM	102	74.6	101 µM	1.36 µM
C=CCNC(=S)N/N=C\c1ccnc2ccccc12	52.42%	10.39 ×10⁴ /M	Active	371.21%	2.88%	Active	3.98 ×10⁴ /M	Active	6.64	Active		1.44 ×10⁵ /M	Active			0.97 µM	108	85.5	105 µM	1.23 µM

Second part, led by results:

Activity [1]	KSV [3]	Activity [4]	Activity [6]	Activity [7]	Activity [8]	Kb [9]	Activity [10]	fold change (FC) [11]	inhibition [12]	Activity [13]	Kb [15]	Activity [17]	Activity [19]	Activity [20]	SMILES	IC50 [2]	selectivity ratio [5]	selectivity ratio [14]	CC50 at 48 h [16]	IC50 [18]
58.04%	8.85 ×10⁴ /M	Active	287.44%	11.8%	Active	3.56 ×10⁵ /M	Active	2.77	inactive	Active	1.39 ×10⁵ /M	Active			Cc1ccc(NC(=S)N/N=C\c2ccnc3ccccc23)cc1	0.98 µM	51.5	38.3	50.5 µM	1.32 µM
56.43%	11.2 ×10⁴ /M	Active	508.17%		Active	7.44 ×10⁴ /M		6.06	Active		1.17 ×10⁵ /M	Active	10.8%	Active	S=C(N/N=C\c1ccnc2ccccc12)Nc1ccc(Br)cc1	0.99 µM	54.1	36.2	53.5 µM	1.48 µM
38.74%	5.9 ×10⁴ /M	Active	237.42%	15.9%	Active	2.37 ×10⁵ /M		3.44	Active		8.4 ×10⁴ /M	Active			Fc1ccc(NC(=S)N/N=C\c2ccnc3ccccc23)cc1	1.1 µM	41.7	42.9	45.9 µM	1.07 µM
53.34%	6.07 ×10⁴ /M	Active	68.97%		Active	6.29 ×10⁴ /M		1.88	Active	Active	1.13 ×10⁵ /M	Active	8.51%	Active	S=C(N/N=C\c1ccnc2ccccc12)Nc1ccc(Cl)cc1	1.07 µM	59.3	50	63.5 µM	1.27 µM
